Assay results taken from patent publication US6559158B1, “Use of methylnaltrexone and related compounds to treat chronic opioid use side affects” (UR Labs, Inc., priority 1997, dated 2003).
Several values for one entry are separate records, joined by “and”; a condition that tells them apart may be missing. Equal entries are not always repeated. Entries after “also recorded” stand apart in the source; their conditions may differ.

What was measured:
[1] = tested on: chronic methadone subjects; assay: Example 2: side effects, vital signs and opioid withdrawal; assay type: in vivo, human
Method: Vital signs were obtained at 0, 5, 10, 30, 60, 90 and 120 min after each test drug administration. Illicit drug use was monitored by random urine drug screens.
To evaluate possible opioid withdrawal with methylnaltrexone, before and 10 min after the completion of test drug administration, subjects were asked to complete an objective checklist of withdrawal symptoms modified from Fraser et al. (J. Pharmacol Exp. Ther., 133:371-387 (1961)) and Jasinski (Drug Addiction J., 197-258 (1977)). Items rated (none, mild, moderate, severe) were yawning, lacrimation (excessive tearing), rhinorrhea (nasal discharge), perspiration, tremor, piloerection (goosebumps), and restlessness. The ratings for individual items were translated to a 0-3 scale and summed to give a total symptom score. The total scores before and after test drug administrations were compared between the groups. Potential opioid withdrawal symptoms were also monitored by an investigator throughout the study.

[2] = Absorption after oral administration of non-enteric coated compound; assay type: in vivo
Method: Methylnaltrexone is rapidly absorbed after oral administration from the stomach and bowel. Initial plasma levels of the drug are seen within 5-10 minutes of the administration of non-enteric coated compound. Addition of an enteric coating which prevents gastric absorption is associated with lower plasma levels of the methylnaltrexone.

[3] = Example 2: plasma levels and urinary excretion of methylnaltrexone; assay type: in vivo, human; conditions: for Peak plasma level: iv, mean±SD
Method: (§1) After each test drug administration, seven blood samples (5 ml each) were obtained at time 0, 5, 30 min, and 1, 2, 4, 8 h, and three urine samples were collected at time 0, 2, and 4 h. Plasma and urine methylnaltrexone levels were determined by an HPLC technique with a detection limit of 2 ng/ml (Kim et al., 1989; Yuan et al., Clin. Pharmacol Ther., 59:469-475 (1996); both herein incorporated by reference). […] Subjects' bowel movements were witnessed and recorded by a research nurse.
Blood and Urine Sampling and Analysis were Performed as in Example 1.

normal volunteers [4] = conditions: 0.45 mg/kg iv, cited from earlier work
[5] = Example 4: pharmacokinetics of 0.45 mg/kg intravenous methylnaltrexone; conditions: per subject (1-12) and Mean ± SD
Method: Sessions were separated by at least 1 week. Each session lasted approximately 7 hours, and the subjects received one of three injections: (1) placebo plus placebo, (2) placebo plus 0.05 mg/kg morphine, or (3) 0.45 mg/kg methylnaltrexone plus 0.05 mg/kg morphine. Injection I was given at the first session, and the subjects were blinded to the medication. Injections 2 and 3 were given in a random order, and the subjects and observers were blinded to the medication. Injection assignments were prepared by random selection on a computer and were sealed in envelopes.

[6] = Example 3: plasma level after oral methylnaltrexone
Method: (§2) Since oral medication is a safer and more convenient way to deliver drugs than is intravenous administration, the efficacy of oral MNTX in relieving constipation in methadone maintained patients was evaluated. Twelve constipated adults (≦2 stool/week) were enrolled. Their daily methadone dose was 73.3±16.2 mg (41-100 mg), mean±SD (range). On day 1 at 9AM, subjects ingested 10 g lactulose (Solvay Pharmaceuticals) to assess oral-cecal transit time as described above, and a placebo capsule. On day 2 at 9AM, subjects again received lactulose, and a capsule containing methylnaltrexone (Mallinckrodt). Ascending oral methylnaltrexone doses (0.3, 1.0, and 3,0 mg/kg) were given to 3 groups of 4 subjects per group. Drug administrations were single-blinded to the subject. Laxation response and potential opioid withdrawal were recorded and blood samples were collected.

normal volunteers [7] = assay: FIG. 5: oral-cecal transit time of normal volunteers given MNTX; assay type: in vivo, human; conditions: normal subjects, doses 2.1 mg/kg to 6.4 mg/kg (FIG. 5)
Method: FIG. 5 is a comparison of oral-cecal transit times of normal volunteers and methadone maintenance subjects showing the increased responsiveness of chronic opioid patients to MNTX. At doses ranging from 2.1 mg/kg to 6.4 mg/kg, normal subjects experienced about a 15-20% reduction in oral-cecal transit time, while at a dose of 3.0 mg/kg, methadone subjects experienced a greater than 35% reduction in oral-cecal transit time.

[8] = Example 1: peak plasma methylnaltrexone level (HPLC); assay type: in vivo, human
Method: as §1

[9] = intravenous; cited from earlier work
[10] = tested on: constipated methadone maintained patients; assay: Example 3: oral methylnaltrexone, laxation response; assay type: in vivo, human; conditions: for subjects who had a bowel movement: 4 subjects; for time to bowel movement after oral compound: mean±SD
Method: as §2

[11] = tested on: chronic methadone subjects with methadone-induced constipation; assay: Example 2: double-blind placebo-controlled trial of intravenous methylnaltrexone, laxation response; conditions: for methylnaltrexone dose received (infusion stopped at bowel movement): mean±SD, range 0.01-0.37
[12] = tested on: chronic methadone subjects; assay: Example 3: oral methylnaltrexone, oral-cecal transit time; assay type: in vivo, human
Method: (§3) The oral-cecal transit time was assessed by the pulmonary hydrogen (H2) measurement technique, which measures pulmonary H2 that is produced when unabsorbed lactulose is fermented by colonic bacteria and excreted in the breath. This H2 production is reflected by a concomitant increase in breath H2 excretion. […] Dis. Sci., 32:829-832 (1987)). Hydrogen breath tests were conducted every 15 min until oral-cecal transit time was determined.
Twelve constipated adults (≦2 stool/week) were enrolled. […] Drug administrations were single-blinded to the subject.

[13] = tested on: chronic methadone subjects; assay: Example 2: oral-cecal transit time (lactulose hydrogen breath test); assay type: in vivo, human
Method: as §3
The oral-cecal transit time was assessed as in Example 1.

C[N@+]1(CC2CC2)CC[C@]23c4c5ccc(O)c4O[C@H]2C(=O)CC[C@@]3(O)[C@H]1C5 [methylnaltrexone, N-methylnaltrexone bromide]
abdominal cramping during and immediately after injection ([1]; all subjects of methylnaltrexone group, iv): mild to moderate abdominal cramping | change in blood pressure or heart rate from baseline ([1]; study drug infusion): No subject demonstrated any clinically significant change | time to initial plasma levels after oral administration [2]: 5 to 10 min | Peak plasma level ([3]; Day 1, 11 subjects, range 30-774): 162 ± 237 ng/mL | percentage of intravenous dose excreted unchanged in urine from 0 to 4 hr ([3]; Day 1, mean±SD, range 9.6-39.9): 23.7±10.5% | Peak plasma level ([3]; Day 2, 11 subjects, range 33-658): 166 ± 177 ng/mL | percentage of intravenous dose excreted unchanged in urine from 0 to 4 hr ([3]; Day 2, mean±SD, range 13.2-73.6): 37.6±17.8% | effect on opioid-induced delay in oral-cecal transit time (normal volunteers [4]; healthy volunteers, acute single doses): effectively prevented opioid-induced delay in oral-cecal transit time | effect on analgesia (normal volunteers [4]; healthy volunteers): without affecting analgesia | Laxation response (normal volunteers [4]; normal opioid naive subjects): without any laxation response | AUC ([5]; human, in vivo, iv, 0.45 mg/kg, AUC, area under the plasma concentration-time curve from 0 to 6 hours): 549 ng·h/mL | AUC, area under the plasma concentration-time curve from 0 to 6 hours [5]: 694 ng·h/mL and 595 ng·h/mL and 637 ng·h/mL and 588 ng·h/mL and 1013 ng·h/mL and 634 ng·h/mL and 587 ng·h/mL and 747 ng·h/mL and 677 ng·h/mL and 742 ng·h/mL and 658 ng·h/mL | CL, total body clearance [5]: 51.7 L/h and 61.6 L/h and 41.6 L/h and 62.2 L/h and 68.1 L/h and 28.4 L/h and 73.2 L/h and 43.0 L/h and 45.2 L/h and 46.5 L/h and 47.8 L/h and 60.1 L/h | Cmax, peak free plasma concentration [5]: 2111 ng/mL and 4309 ng/mL and 1921 ng/mL and 2418 ng/mL and 5471 ng/mL and 4076 ng/mL and 3443 ng/mL and 2993 ng/mL and 3059 ng/mL and 3119 ng/mL and 4033 ng/mL and 2640 ng/mL | Fu, percentage of dose excreted unchanged in urine from 0 to 3 hours [5]: 33.8% and 36.5% and 43.5% and 26.6% and 49.6% and 73.4% and 44.4% and 46.0% and 39.5% and 40.4% and 35.1% and 34.0% | t1/2β, terminal half-life [5]: 124.6 min and 162.6 min and 203.1 min and 238.1 min and 84.9 min and 93.5 min and 114.2 min and 151.8 min and 112.5 min and 106.3 min and 95.8 min and 87.5 min | Peak plasma level ([6]; 4 subjects with detectable level (one 1.0 mg/kg, three 3.0 mg/kg oral), mean±SD, range 10-26): 17.8 ± 6.6 ng/mL | subjects with undetectable methylnaltrexone in plasma ([6]; of 12 subjects, oral 0.3-3.0 mg/kg): Eight | reduction in oral-cecal transit time (normal volunteers [7]): 15-20% | Peak plasma methylnaltrexone level ([8]; Subject 1, 0.45 mg/kg iv): 1.65 µg/mL | Peak plasma methylnaltrexone level ([8]; Subject 2, 0.45 mg/kg iv): 1.10 µg/mL | Peak plasma methylnaltrexone level ([8]; Subject 3, 0.05-0.15 mg/kg iv): 0.25 µg/mL | Peak plasma methylnaltrexone level ([8]; Subject 4, 0.05-0.15 mg/kg iv): 0.53 µg/mL | elimination half-life [9]: approximately 2 h | subjects who had a bowel movement ([10]; oral 0.3 mg/kg): 3 out of 4 | time to bowel movement after oral compound ([10]; oral 0.3 mg/kg, range 8-24 hr): 18.0 ± 8.7 h | subjects who had a bowel movement ([10]; oral 1.0 mg/kg): All subjects | time to bowel movement after oral compound ([10]; oral 1.0 mg/kg, range 3-24 hr): 12.3 ± 8.7 h | subjects who had a bowel movement ([10]; oral 3.0 mg/kg): All subjects | time to bowel movement after oral compound ([10]; oral 3.0 mg/kg, range 1.2-10 hr): 5.2 ± 4.5 h | methylnaltrexone dose received (infusion stopped at bowel movement) ([11]; Day 1, iv): 0.09 ± 0.10 mg/kg | methylnaltrexone dose received (infusion stopped at bowel movement) ([11]; Day 2, iv): 0.10 ± 0.10 mg/kg | Bowel movement Satisfaction ([11]; MNTX group, end of study, listed as MNTX): Very satisfied; also recorded: Somewhat satisfied | satisfaction with bowel movement activity at the end of the study ([11]; methylnaltrexone group): all 11 subjects were satisfied | subjects whose stool was soft to loose and in large quantity ([11]; methylnaltrexone group): over 90% | reduction in oral-cecal transit time ([12]; methadone subjects, dose of 3.0 mg/kg (FIG. 5)): greater than 35% | dose-related reduction of oral-cecal transit times ([12]; oral 0.3, 1.0, 3.0 mg/kg, p<0.05, Spearman rank correlation and linear regression): significant dose-response effect | oral-cecal transit time after study drug ([13]; methylnaltrexone group n=11, Day 2, iv, mean±SD, range 30-105, baseline 132.3±36.0): 54.5 ± 19.3 min | average change in oral-cecal transit time from baseline ([13]; methylnaltrexone group n=11, P<0.001 vs placebo group): -77.7 ± 37.2 min
